We go through 1 compound from paper PMC11268423 (Science Advances, 2024).

For assay [1], the system named is SARS-CoV-2 M^pro T304I mutant virus. It is filed as cell-based.
Assay [2] concerns SARS-CoV-2 M^pro T21I+S144A+T304I mutant virus. Format: cell-based.
For the next assay, the system named is SARS-CoV-2 M^pro E166V. Particulars: cited from earlier work.
The next assay deals with SARS-CoV-2 M^pro T21I. Particulars: cited from earlier work.
The subject of a further assay is SARS-CoV-2 M^pro L50F. Particulars: cited from earlier work.
The test system of another assay is SARS-CoV-2 M^pro T304I. Particulars: cited from earlier work.

Values joined by “and” are separate entries in the source; they are usually repeats but may differ in a detail not shown here. Equal values may be shown once.

Regarding `CC(C)(C)[C@H](NC(=O)C(F)(F)F)C(=O)N1C[C@H]2[C@@H]([C@H]1C(=O)N[C@H](C#N)C[C@@H]1CCNC1=O)C2(C)C` [Nirmatrelvir], the “Fold over WA-1” value in assay [1] is 3.4 fold; in assay [2], > 20 fold and 27.8 fold. Also, the “fold resistance to nirmatrelvir in vitro” value with SARS-CoV-2 M^pro E166V was “up to 288 fold”. In addition, the figures for the “fold resistance to nirmatrelvir” value in the assay with SARS-CoV-2 M^pro T21I, in the assay on SARS-CoV-2 M^pro L50F and in the assay with SARS-CoV-2 M^pro T304I were 4.6 fold, 4.2 fold and 5.5 fold, respectively.
